Molecules are shown by their SMILES.

In one assay the target is human ALK5 (Homo sapiens (Human), UniProt P36897). The experiment in a line: ADP-GLO Kinases assay, inhibitory activity on ALK5. It is filed as biochemical.
Sequence of human ALK5 (P36897 80-503 limits assumed): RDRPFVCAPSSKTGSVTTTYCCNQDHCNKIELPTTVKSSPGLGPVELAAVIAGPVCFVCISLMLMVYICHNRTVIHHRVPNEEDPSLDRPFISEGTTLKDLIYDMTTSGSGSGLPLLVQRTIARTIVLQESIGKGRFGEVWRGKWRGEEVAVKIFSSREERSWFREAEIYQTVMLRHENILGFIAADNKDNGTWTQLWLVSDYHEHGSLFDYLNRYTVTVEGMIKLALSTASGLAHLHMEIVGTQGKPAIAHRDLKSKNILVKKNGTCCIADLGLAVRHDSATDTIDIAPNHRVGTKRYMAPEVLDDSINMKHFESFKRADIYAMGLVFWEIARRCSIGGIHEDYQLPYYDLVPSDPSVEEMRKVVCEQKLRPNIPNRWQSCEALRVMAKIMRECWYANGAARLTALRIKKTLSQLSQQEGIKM
Conditions: not given
The procedure:
The enzymatic activity of compounds of the present invention was monitored measuring the formation of ADP using the ADP-GLO Kinases assay. Following the incubation of the purified enzyme, a substrate and ATP, the produced ADP was converted into ATP, which in turn was converted into light by Ultra-Glo Luciferase. The luminescent signal positively correlated with ADP amount and kinase activity. […] The assay was performed in 384-well format and was validated using a selection of reference compounds that was tested in 11 point concentration-response curve.
Broadly, the IC50 is the midpoint of a concentration-inhibition curve. In turn, `CN1CCN(CCC2CCN(C(=O)Oc3ccc4c(Nc5cnnc(-c6cc(Cl)ccc6F)c5)ccnc4c3)CC2)CC1` [Example 70, 4-{[6-(5-Chloro-2-Fluorophenyl)Pyridazin-4-Yl]Amino}Quinolin-7-Yl 4-[2-(4-Methylpiperazin-1-Yl)Ethyl]Piperidine-1-Carboxylate] displayed an IC50 of 1 to 5 nM.

The assay is the same for the next values; noted with them: purified recombinant human ALK5 2.6 nM, TGFβ1 peptide substrate, 25° C, 150 min incubation, ADP-Glo detection; read-out: ALK5 IC50.
As to `CN(C)CCN1CCN(C(=O)Oc2ccc3c(Nc4cnnc(-c5cc(Cl)ccc5F)c4)ccnc3c2)CC1` [Example 61, 4-{[6-(5-Chloro-2-Fluorophenyl)Pyridazin-4-Yl]Amino}Quinolin-7-Yl 4-[2-(Dimethylamino)Ethyl]Piperazine-1-Carboxylate], the IC50 is less than 1 nM.

Turning to `CN1CCCN(CCOc2ccc3c(Nc4cnnc(-c5cc(Cl)ccc5F)c4)ccnc3c2)C1` [Example 62, N-[6-(5-Chloro-2-Fluorophenyl)Pyridazin-4-Yl]-7-[2-(3-Methyl-1,3-Diazinan-1-Yl)Ethoxy]Quinolin-4-Amine], the IC50 was less than 1 nM.

For `CNC(=O)CCN1CCN(CCOc2ccc3c(Nc4cnnc(-c5cc(Cl)ccc5F)c4)ccnc3c2)CC1` [Example 63, 3-(4-{2-[(4-{[6-(5-Chloro-2-Fluorophenyl)Pyridazin-4-Yl]Amino}Quinolin-7-Yl)Oxy]Ethyl}Piperazin-1-Yl)-N-Methylpropanamide], the IC50 is less than 1 nM.

For the compound `CN1CCC(CCN2CCN(C(=O)Oc3ccc4c(Nc5cnnc(-c6cc(Cl)ccc6F)c5)ccnc4c3)CC2)CC1` [Example 64, 4-{[6-(5-Chloro-2-Fluorophenyl)Pyridazin-4-Yl]Amino}Quinolin-7-Yl 4-[2-(1-Methylpiperidin-4-Yl)Ethyl]Piperazine-1-Carboxylate], the IC50 is less than 1 nM.

For the compound `Cc1nnc(-c2cc(Cl)ccc2F)cc1Nc1ccnc(NC(=O)CCCN2CCN(C)CC2)c1` [Example 65, N-(4-{[6-(5-Chloro-2-Fluorophenyl)-3-Methylpyridazin-4-Yl]Amino}Pyridin-2-Yl)-4-(4-Methylpiperazin-1-Yl)Butanamide], the IC50 was less than 1 nM.

As to `NCCN1CCN(CCOc2ccc3c(Nc4cnnc(-c5cc(Cl)ccc5F)c4)ccnc3c2)CC1` [Example 66, 7-{2-[4-(2-Aminoethyl)Piperazin-1-Yl]Ethoxy}-N-[6-(5-Chloro-2-Fluorophenyl)Pyridazin-4-Yl]Quinolin-4-Amine], the IC50 was less than 1 nM.

Consider `CS(=O)(=O)NCCN1CCN(CCOc2ccc3c(Nc4cnnc(-c5cc(Cl)ccc5F)c4)ccnc3c2)CC1` [Example 67, N-[2-(4-{2-[(4-{[6-(5-Chloro-2-Fluorophenyl)Pyridazin-4-Yl]Amino}Quinolin-7-Yl)Oxy]Ethyl}Piperazin-1-Yl)Ethyl]Methanesulfonamide], for which the IC50 was less than 1 nM.

For the compound `CN(C)CCN1CCN(CCOc2ccc3c(Nc4cnnc(-c5cc(Cl)ccc5F)c4)ccnc3c2)CC1` [Example 68, N-[6-(5-Chloro-2-Fluorophenyl)Pyridazin-4-Yl]-7-[2-[4-[2-(Dim Ethylamino)Ethyl]Piperazin-1-Yl]Ethoxy]Quinolin-4-Amine], the IC50 was less than 1 nM.

With `CC(=O)NCCN1CCN(CCOc2ccc3c(Nc4cnnc(-c5cc(Cl)ccc5F)c4)ccnc3c2)CC1` [Example 69, N-[2-(4-{2-[(4-{[6-(5-Chloro-2-Fluorophenyl)Pyridazin-4-Yl]Amino}Quinolin-7-Yl)Oxy]Ethyl}Piperazin-1-Yl)Ethyl]Acetamide], the IC50 is less than 1 nM.

`N#CCCN1CCN(CCOc2ccc3c(Nc4cnnc(-c5cc(Cl)ccc5F)c4)ccnc3c2)CC1` [Example 71, 3-(4-{2-[(4-{[6-(5-Chloro-2-Fluorophenyl)Pyridazin-4-Yl]Amino}Quinolin-7-Yl)Oxy]Ethyl}Piperazin-1-Yl)Propanenitrile]: the IC50 is less than 1 nM.

On to `OCCN1CCN(CCOc2ccc3c(Nc4cnnc(-c5cc(Cl)ccc5F)c4)ccnc3c2)CC1` [Example 72, 2-(4-{2-[(4-{[6-(5-Chloro-2-Fluorophenyl)Pyridazin-4-Yl]Amino}Quinolin-7-Yl)Oxy]Ethyl}Piperazin-1-Yl)Ethan-1-Ol], for which the half-maximal inhibitory concentration (IC50) is less than 1 nM.
